Measured values as given in ChEMBL document CHEMBL3045964, “Synthesis, cytotoxicity, and structureactivity insight of NH- and N-methyl-3,5-bis-(arylidenyl)-4-piperidones” (Med Chem Res, 2013).

What was measured:
B16 = assay: Cytotoxicity against Mus musculus (mouse) B16 cells assessed as growth inhibition after 72 hr by MTT assay; assay type: functional, cell-based; details: B16, 72 h
L1210 = assay: Cytotoxicity against Mus musculus (mouse) L1210 cells assessed as growth inhibition after 72 hr by MTT assay; assay type: functional, cell-based; details: L1210, 72 h

O=C1/C(=C/c2ccc(Cl)c(Cl)c2)CNC/C1=C\c1ccc(Cl)c(Cl)c1
IC50 (B16): 4.1 µM
IC50 (L1210): 3.6 µM

O=C1/C(=C/c2ccc(O)c([N+](=O)[O-])c2)CNC/C1=C\c1ccc(O)c([N+](=O)[O-])c1
IC50 (B16): 7.3 µM
IC50 (L1210): 2 µM

CCN(CC)c1ccc2cc(/C=C3\CNC/C(=C\c4cc5ccc(N(CC)CC)cc5oc4=O)C3=O)c(=O)oc2c1
IC50 (B16): 44 µM
IC50 (L1210): 29 µM

CCN(CC)c1ccc(/C=C2\CN(C)C/C(=C\c3ccc(N(CC)CC)cc3)C2=O)cc1
IC50 (B16): 33 µM
IC50 (L1210): 3.3 µM

CCN(CC)c1ccc(/C=C2\CNC/C(=C\c3ccc(N(CC)CC)cc3)C2=O)cc1
IC50 (B16): 1.5 µM
IC50 (L1210): 35 µM

CN1C/C(=C\c2ccc(N(C)C)cc2)C(=O)/C(=C/c2ccc(N(C)C)cc2)C1
IC50 (B16): 23.5 µM
IC50 (L1210): 28.5 µM

COc1ccc(/C=C2\CNC/C(=C\c3ccc(OC)nc3)C2=O)cn1
IC50 (B16): 3.6 µM
IC50 (L1210): 2.8 µM

COc1ccc(OC)c(/C=C2\CNC/C(=C\c3cc(OC)ccc3OC)C2=O)c1
IC50 (B16): 0.3 µM
IC50 (L1210): 0.3 µM

O=C1/C(=C/c2ccc3c(c2)OCO3)CNC/C1=C\c1ccc2c(c1)OCO2
IC50 (B16): 25 µM
IC50 (L1210): 12.5 µM

COc1cc(/C=C2\CNC/C(=C\c3cc(OC)cc(OC)c3)C2=O)cc(OC)c1
IC50 (B16): 0.3 µM
IC50 (L1210): 0.3 µM

COc1cc(OC)c(/C=C2\CNC/C(=C\c3c(OC)cc(OC)cc3OC)C2=O)c(OC)c1
IC50 (B16): 0.2 µM
IC50 (L1210): 1.1 µM

COc1cccc(/C=C2\CNC/C(=C\c3cccc(OC)c3)C2=O)c1
IC50 (B16): 1.9 µM
IC50 (L1210): 4.3 µM

O=C1/C(=C/c2cccc(Br)c2)CNC/C1=C\c1cccc(Br)c1
IC50 (B16): 2.1 µM
IC50 (L1210): > 100 µM

CN1C/C(=C\c2cccc(Br)c2)C(=O)/C(=C/c2cccc(Br)c2)C1
IC50 (B16): 2.1 µM
IC50 (L1210): 5 µM

CN1C/C(=C\c2ccc(F)cc2)C(=O)/C(=C/c2ccc(F)cc2)C1
IC50 (B16): 6.5 µM
IC50 (L1210): 31 µM

O=C1/C(=C/c2cccc(O)c2)CNC/C1=C\c1cccc(O)c1
IC50 (B16): 0.7 µM
IC50 (L1210): 2.3 µM

O=C1/C(=C/c2ccc(Cl)cc2)CNC/C1=C\c1ccc(Cl)cc1
IC50 (B16): 4 µM
IC50 (L1210): 7 µM

O=C1/C(=C/c2ccc(F)cc2)CNC/C1=C\c1ccc(F)cc1
IC50 (B16): 3.8 µM
IC50 (L1210): 24.5 µM

CN(C)c1ccc(/C=C2\CNC/C(=C\c3ccc(N(C)C)cc3)C2=O)cc1
IC50 (B16): 32.5 µM
IC50 (L1210): 42.5 µM

CN1C/C(=C\c2ccc(Cl)cc2)C(=O)/C(=C/c2ccc(Cl)cc2)C1
IC50 (B16): 3.8 µM
IC50 (L1210): 10 µM
